Here are results for five molecules from patent publication US20020155562A1, “Glutathionylspermidine synthetase and processes for recovery and use thereof” (Leopold Flohe, priority 1996, published 2002).

The target of assay [1] is glutathionylspermidine synthetase (GspS). Briefly: Kinetic analysis of GspS by HPLC determination of the product Gsp. Type of assay: biochemical, C. fasciculata. To be noted: 25.0° C.; for Ki: pH 7.5; for Km: substrates of GspS, rapid equilibrium random-order mechanism, pH 7.5, 5 mM magnesium, read-out: limiting Km (dissociation constant of the quarternary complex). As for the experimental part:
Production of starting material: C. fasciculata was grown in a medium previously described (27) in a 100-1 fermenter at 27° C. with continuous stirring (200 rpm) and aeration (0.1 vvm). Organisms were harvested in the late logarithmic growth phase by continous flow centrifugation. The pellet was resuspended with 100 mM HEPES buffer (pH 7.5) containing 1 mM DTT and 1 mM MgSO4. After centrifugation the cells were stored at −20° C. GspS, Assay: The assays were carried out at 25.0° C. in a volume of 0.9 ml containing 50 mM Bis-Tris-propane, 50 mM Tris, pH 7.5, 5 mM MgSO4, 1 mM EDTA, 5 mM DTT, 5 mM ATP, 10 mM GSH, and 10 mM spermidine (1). The assay for TS was carried out as described by Smith et al. (1). Aliquots were taken after 20 min. For thiol analysis a precolumn derivatization with the fluorescent thiol-specific reagent, monobromobimane (Calbiochem), was used as described previously (2). All samples for HPLC analysis were diluted four-fold with water. Separation and analytical conditions were as described previously (28). HPLC-analysis was performed with a Jasco-HPLC-system consisting of an autosampler (851-AS), a pump (PU-980), a ternary gradient unit (LG-980-02), and a highly sensitive fluorescence detector (FP-920), which enabled a precise analysis of the small product peak in the presence of numerous other and larger ones. An external standard (0.04 mM Gsp) was used for integration calibration of the samples.
All kinetic experiments were carried out at 25.0° C. in a volume of 0.9 ml containing 50 mM Bis-Tris-propane, 50 mM Tris, pH 7.5, 1 mM EDTA, 5 mM DTT and variable concentrations of ATP (0.10, 0.13, 0.18, 0.28, 0.66 mM ATP), GSH (0.36, 0.47, 0.66, 1.11, 3.57 mM GSH), and spermidine (0.36, 0.47, 0.66, 1.11, 3.57 mM spermidine), respectively. The enzymatic tests for kinetic studies except the ADP inhibition studies were performed in the presence of phosphoenolpyruvate (10 mM) and pyruvate kinase (0.5 units). A fixed magnesium concentration of 5 mM and a GspS content of 0.072 mg (0.923 μM) was used. Aliquots were taken at 15 min and 30 min. GspS activity was analyzed by product determination as described in example 1.

In assay [2] the test system is glutathionylspermidine synthetase (GspS). Briefly: Malachite green colorimetric assay for liberation of inorganic phosphate. The settings on record: ADP 0-10 mM at ATP 0.2-5 mM; competitive with respect to ATP. Format: biochemical, C. fasciculata. On the procedure:
FIG. 9. Malachite green colorimetric assay for liberation of inorganic phosphate. The malachite green calorimetric assay for liberation of inorganic phosphate (1) was used for fast detection of GspS activity.
The standard assay was carried out at 25.0° C. in a volume of 0.15 ml containing 50 mM Bis-Tris-propane, 50 mM Tris, pH 7.5, 5 mM MgSO4, 1 mM EDTA, 5 mM DTT, 5 mM ATP, 10 mM GSH, 10 mM spermidine, and GspS. After an incubation of 10 min the malachite green reagent was added for detection of GspS activity.
Concentration of ATP (see heading) and ADP (see table).
The liberation of inorganic phosphate from ATP can be easily visualized by malachite green (FIG. 9). The test is amply used to monitor ATP hydrolyzing activities and is correspondingly unspecific. […] This finding enabled us to use this fast and convenient test to measure specifically GspS activity which is accompanied by release of inorganic phosphate from ATP in the presence of glutathione, spermidine, and magnesium ions. The test can be easily adapted to mass screening as outlined below.

Molecule `Nc1ncnc2c1ncn2[C@@H]1O[C@H](COP(=O)(O)OP(=O)(O)O)[C@@H](O)[C@H]1O` [ADP] displayed a Ki in assay [1] (inhibition of GspS, competitive with respect to ATP, no ATP regenerating system) of 80 µM. The “inhibition of GspS” value in assay [2] was “significantly inhibits”.

For `N[C@@H](CCC(=O)N[C@@H](CS)C(=O)NCC(=O)NCCCCNCCCNC(=O)CNC(=O)[C@H](CS)NC(=O)CC[C@H](N)C(=O)O)C(=O)O` [TSH, N^1, N^8-bis(glutathionyl)spermidine], affinity in assay [1] (feed-back inhibition of GspS, competed by GSH) was put at a Ki of 480 µM.

Take `NCCCCNCCCN` [spermidine]: the Km in assay [1] amounted to 470 ± 90 µM.

In the case of adenosyltriphosphate [Mg^2+-ATP], the Km in assay [1] was found to be 250 ± 20 µM.

As to `N[C@@H](CCC(=O)N[C@@H](CS)C(=O)NCC(=O)O)C(=O)O` [GSH, glutathione], in assay [1], the Km came to 2510 ± 330 µM.

The Ki is the dissociation constant of the complex between target and ligand, obtained from inhibition or displacement. High values mean weaker binding, low ones tighter binding. In general, Km refers to the concentration of substrate that gives half-maximal velocity.
